The experiment relates to plasma nitrites induced by endotoxin (LPS). Briefly: In Vivo Assay: Low Dose LPS, plasma nitrites in endotoxin-treated mice. Particulars: LPS 12.5 mg/kg i.p., plasma nitrites 5 hours post-treatment. The method, then:
In Vivo Assay Mice were treated with an intraperitoneal injection of 12.5 mg/kg of endotoxin (LPS) with or without oral administration of the nitric oxide synthase inhibitors. Plasma nitrites were measured 5 hours post-treatment.

The source of these data is patent US6774126B2, “Pyrrolo[1,2-b][1,2,4]oxadiazine diones useful as nitric oxide synthase inhibitors” (Pharmacia Corporation, priority 1998, dated 2004).

Each structure is given as a SMILES string.

For the molecule `O=c1onc2n1CCCCC2` [Example 1, 6,7,8,9-tetrahydro-3H,5H-[1,2,4]oxadiazolo[4,3-a]azepin-3-one], the “Low Dose LPS in vivo, inhibition of rise in plasma nitrites” value (from here on “Low Dose LPS in vivo, inhibition of rise”) (compound 1 mg/kg p.o.) amounted to 23% inh and the “Low Dose LPS in vivo, inhibition of rise” value (compound 10 mg/kg p.o.) was 72% inh.

As for `NCCC1CCCCc2noc(=O)n21` (stereo not shown) [Example 3, 5-(2-aminoethyl)-6,7,8,9-tetrahydro-3H,5H-[1,2,4]oxadiazolo[4,3-a]azepin-3-one, mono(trifluoroacetate)], the “Low Dose LPS in vivo, inhibition of rise” value runs as follows: (compound 3 mg/kg p.o.) 33% inh; (compound 10 mg/kg p.o.) 64% inh.
